{"source": "PubChem BioAssay AID1259409", "about": "(Chemical Carcinogenesis Research Information System (CCRIS), 2018)", "origin": "cited, not measured here", "system": "rodent chemically induced tumor inhibition, incidence and multiplicity", "assay": "CCRIS tumor inhibitor studies", "conditions": "Promoter: NONE USED", "note": "Several values for one entry are separate records, joined by “and”; a condition that tells them apart may be missing. Equal entries are not always repeated."}
{"smiles": "CCN(CC)C(=S)SSC(=S)N(CC)CC", "values": [{"measurement": "tumour outcome (control, treated, inhibition, significance)", "setting": "Carcinogen: 1,2-DIMETHYLHYDRAZINE, 540-73-8, Dose [Inhibitor]: 0, 500 MG/KG BW IN CORN OIL 5 D/WK FOR 20 WK BEGINNING 2 HR POST FIRST CARCINOGEN DOSE (STUDY DURATION: 18 MO), Route [Inhibitor]: GAVAGE, Species: RAT, Strain/Sex: WISTAR/MALE, Target Tissue: Type of Lesion: INTESTINE: TUMOR, Dose [Carcinogen]: 20 MG/KG BW 1/WK FOR 20 WK", "value": "100%, 58%, 42%, not calculated"}, {"measurement": "tumour outcome (control, treated, inhibition, significance)", "setting": "Carcinogen: 1,2-DIMETHYLHYDRAZINE, 540-73-8, Dose [Inhibitor]: 0, 500 MG/KG BW IN CORN OIL 5 D/WK FOR 20 WK BEGINNING 2 HR POST FIRST CARCINOGEN DOSE (STUDY DURATION: 18 MO), Route [Inhibitor]: GAVAGE, Species: RAT, Strain/Sex: WISTAR/MALE, Target Tissue: Type of Lesion: ZYMBAL GLAND: TUMOR, Dose [Carcinogen]: 20 MG/KG BW 1/WK FOR 20 WK", "value": "52%, 4%, 92%, not calculated"}, {"measurement": "tumour outcome (control, treated, inhibition, significance)", "setting": "Carcinogen: 1,2-DIMETHYLHYDRAZINE, 540-73-8, Dose [Inhibitor]: 0, 500 MG/KG BW IN CORN OIL 5 D/WK FOR 20 WK BEGINNING 15 D PRIOR TO CARCINOGEN TREATMENT (STUDY DURATION: 18 MO), Route [Inhibitor]: GAVAGE, Species: RAT, Strain/Sex: WISTAR/MALE, Target Tissue: Type of Lesion: INTESTINE: TUMOR, Dose [Carcinogen]: 20 MG/KG BW 1/WK FOR 20 WK", "value": "100%, 0%, 100%, not calculated"}, {"measurement": "tumour outcome (control, treated, inhibition, significance)", "setting": "Carcinogen: 1,2-DIMETHYLHYDRAZINE, 540-73-8, Dose [Inhibitor]: 0, 500 MG/KG BW IN CORN OIL 5 D/WK FOR 20 WK BEGINNING 15 D PRIOR TO CARCINOGEN TREATMENT (STUDY DURATION: 18 MO), Route [Inhibitor]: GAVAGE, Species: RAT, Strain/Sex: WISTAR/MALE, Target Tissue: Type of Lesion: ZYMBAL GLAND: TUMOR, Dose [Carcinogen]: 20 MG/KG BW 1/WK FOR 20 WK", "value": "68%, 0%, 100%, not calculated"}, {"measurement": "tumour outcome (control, treated, inhibition, significance)", "setting": "Carcinogen: 1,2-DIMETHYLHYDRAZINE, 540-73-8, Dose [Inhibitor]: 5 MG/G IN DIET FOR 17 WK BEGINNING 8 D PRIOR TO CARCINOGEN (STUDY DURATION: 36 WK), Route [Inhibitor]: ORAL, Species: MOUSE, Strain/Sex: C-F1/FEMALE, Target Tissue: Type of Lesion: LARGE INTESTINE: TUMOR, Dose [Carcinogen]: 0.7 MG IN 0.2 ML EDTA SOLUTION 1/WK FOR 16 WK", "value": "14/14 (100%), 0/20 (0%), 100%, not calculated"}, {"measurement": "tumour outcome (control, treated, inhibition, significance)", "setting": "Carcinogen: 7,12-DIMETHYLBENZ[A]ANTHRACENE, 57-97-6, Dose [Inhibitor]: 0.03 NMOL/G DIET DAILY FOR 17 WK STARTING 1 WK PRIOR TO CARCINOGEN TREATMENT AND CONTINUING THROUGH THE END OF THE STUDY, Route [Inhibitor]: ORAL, Species: RAT, Strain/Sex: SPRAGUE-DAWLEY/FEMALE, Target Tissue: Type of Lesion: MAMMARY GLAND: TUMOR, Dose [Carcinogen]: 12 MG IN 1 ML OLIVE OIL ONCE", "value": "61%, 22%, 64%, p<0.05 and 79%, 8%, 90%, p<0.001"}, {"measurement": "tumour outcome (control, treated, inhibition, significance)", "setting": "Carcinogen: 7,12-DIMETHYLBENZ[A]ANTHRACENE, 57-97-6, Dose [Inhibitor]: 100 MG IN 1 ML CARBOWAX 400 SOLUTION ONCE 24 HR BEFORE CARCINOGEN TREATMENT FOLLOWED BY 16 WK OBSERVATION PERIOD (STUDY, Route [Inhibitor]: GAVAGE, Species: RAT, Strain/Sex: SPRAGUE-DAWLEY/FEMALE, Target Tissue: Type of Lesion: MAMMARY GLAND: TUMOR, Dose [Carcinogen]: 12 MG IN 1 ML OLIVE OIL ONCE", "value": "59%, 11%, 81%, p<0.01"}, {"measurement": "tumour outcome (control, treated, inhibition, significance)", "setting": "Carcinogen: BENZO[A]PYENE, 50-32-8, Dose [Inhibitor]: 0.03 MMOL/G DIET DAILY FOR 6 WK CONCURRENT WITH CARCINOGEN TREATMENT FOLLOWED BY 14 WK ON STANDARD DIET (STUDY DURATION:, Route [Inhibitor]: ORAL, Species: MOUSE, Strain/Sex: ICR/FEMALE, Target Tissue: Type of Lesion: FORESTOMACH: NEOPLASM, Dose [Carcinogen]: 0.3 MG/G IN DIET DAILY FOR 6 WK", "value": "40%, 0%, 100%, not calculated"}, {"measurement": "tumour outcome (control, treated, inhibition, significance)", "setting": "Carcinogen: BENZO[A]PYENE, 50-32-8, Dose [Inhibitor]: 0.03 MMOL/G DIET DAILY FOR 25 D STARTING 7 D PRIOR TO FIRST CARCINOGEN DOSE AND THEN PLACED ON STANDARD DIET THROUGH THE, Route [Inhibitor]: ORAL, Species: MOUSE, Strain/Sex: STRAIN-A/FEMALE, Target Tissue: Type of Lesion: LUNG: ADENOMA, Dose [Carcinogen]: 3 MG IN 0.5 ML SESAME OIL ADMINISTERED 7 AND 21 D AFTER START OF AGENT", "value": "12/12 (100%), 12/12 (100%), 0%, not significant"}, {"measurement": "tumour outcome (control, treated, inhibition, significance)", "setting": "Carcinogen: BRACKEN FERN, Dose [Inhibitor]: 5 MG/G DIET, DAILY FOR 12 MO SIMULTANEOUS WITH CARCINOGEN (STUDY DURATION: 12 MO), Route [Inhibitor]: ORAL, Species: RAT, Strain/Sex: ALBINO/?, Target Tissue: Type of Lesion: INTESTINE: TUMOR, Dose [Carcinogen]: 0.33 G IN DIET DAILY FOR 12 MO", "value": "30/30 (100%), 12/16 (75%), 25%, p<0.01"}, {"measurement": "tumour outcome (control, treated, inhibition, significance)", "setting": "Carcinogen: BRACKEN FERN, Dose [Inhibitor]: 5 MG/G DIET, DAILY FOR 12 MO SIMULTANEOUS WITH CARCINOGEN (STUDY DURATION: 12 MO), Route [Inhibitor]: ORAL, Species: RAT, Strain/Sex: ALBINO/?, Target Tissue: Type of Lesion: URINARY BLADDER: TUMOR, Dose [Carcinogen]: 0.33 G IN DIET, DAILY FOR 12 MO", "value": "22/30 (73%), 10/16 (62%), 15%, not significant"}, {"measurement": "tumour outcome (control, treated, inhibition, significance)", "setting": "Carcinogen: TRANS-5-AMINO-3-[2-(5-NITRO-2-FURYL)VINYL]-1,2,4-OXADIAZOLE;SQL8506, 28754-68-9, Carcinogen: TRANS-5-AMINO-3-[2-(5-NITRO-2-FURYL)VINYL]-1,2,4-OXADIAZOLE;SQL8506, 28754-68-9, Dose [Inhibitor]: 1% IN DIET DAILY FOR 11 D BEGINNING 3 D BEFORE, DURING AND 3 D AFTER EACH OF 3 CARCINOGEN TREATMENTS (STUDY DURATION: LI, Route [Inhibitor]: ORAL, Species: MOUSE, Strain/Sex: CD-1/FEMALE, Target Tissue: Type of Lesion: HEMATOPOIETIC SYSTEM: MYELOID LEUKEMIA, Dose [Carcinogen]: 1 G/KG 2/D FOR 5 D EVERY 4 WK FOR 3 COURSES OF TREATMENT", "value": "7/137 (5%), 0/34 (0%), 100%, not calculated"}, {"measurement": "tumour outcome (control, treated, inhibition, significance)", "setting": "Carcinogen: TRANS-5-AMINO-3-[2-(5-NITRO-2-FURYL)VINYL]-1,2,4-OXADIAZOLE;SQL8506, 28754-68-9, Carcinogen: TRANS-5-AMINO-3-[2-(5-NITRO-2-FURYL)VINYL]-1,2,4-OXADIAZOLE;SQL8506, 28754-68-9, Dose [Inhibitor]: 1% IN DIET DAILY FOR 11 D BEGINNING 3 D BEFORE, DURING AND 3 D AFTER EACH OF 3 CARCINOGEN TREATMENTS (STUDY DURATION: LI, Route [Inhibitor]: ORAL, Species: MOUSE, Strain/Sex: CD-1/FEMALE, Target Tissue: Type of Lesion: LYMPHOID TISSUE: NONTHYMIC LYMPHOMA, Dose [Carcinogen]: 1 G/KG 2/D FOR 5 D EVERY 4 WK FOR 3 COURSES OF TREATMENT", "value": "8/137 (6%), 0/34 (0%), 100%, not calculated"}, {"measurement": "tumour outcome (control, treated, inhibition, significance)", "setting": "Carcinogen: TRANS-5-AMINO-3-[2-(5-NITRO-2-FURYL)VINYL]-1,2,4-OXADIAZOLE;SQL8506, 28754-68-9, Carcinogen: TRANS-5-AMINO-3-[2-(5-NITRO-2-FURYL)VINYL]-1,2,4-OXADIAZOLE;SQL8506, 28754-68-9, Dose [Inhibitor]: 1% IN DIET DAILY FOR 11 D BEGINNING 3 D BEFORE, DURING AND 3 D AFTER TREATMENT EACH OF 3 CARCINOGEN TREATMENTS (STUDY DU, Route [Inhibitor]: ORAL, Species: MOUSE, Strain/Sex: CD-1/FEMALE, Target Tissue: Type of Lesion: STOMACH: SQUAMOUS CARCINOMA, Dose [Carcinogen]: 1 G/KG 2/D FOR 5 D EVERY 4 WK FOR 3 COURSES OF TREATMENT", "value": "60/137 (44%), 12/34 (35%), 20%, not calculated"}, {"measurement": "tumour outcome (control, treated, inhibition, significance)", "setting": "Carcinogen: URETHANE, 51-79-6, Dose [Inhibitor]: 0, 500 MG/KG IN CORN OIL AT 24 HR AND 1 HR PRIOR TO CARCINOGEN DOSE (STUDY DURATION: 4 MO), Route [Inhibitor]: GAVAGE, Species: MOUSE, Strain/Sex: BALB/MALE, FEMALE, Target Tissue: Type of Lesion: LUNG: TUMOR, Dose [Carcinogen]: 1 G/KG IN 0.9% SALINE ONCE", "value": "100%, 63%, 37%, not significant"}, {"measurement": "tumour outcome (control, treated, inhibition, significance)", "setting": "Carcinogen: URETHANE, 51-79-6, Dose [Inhibitor]: 0, 500 MG/KG IN CORN OIL FOR 4 D BEGINNING 4 D POST CARCINOGEN DOSE (STUDY DURATION: 4 MO), Route [Inhibitor]: GAVAGE, Species: MOUSE, Strain/Sex: BALB/MALE, FEMALE, Target Tissue: Type of Lesion: LUNG: TUMOR, Dose [Carcinogen]: 1 G/KG IN 0.9% SALINE ONCE", "value": "100%, 94%, 6%, not significant"}]}
